In patent US5488110A, “Highly water soluble bis-naphthalimides useful as anticancer agents” (The Du Pont Merck Pharmaceutical Company, priority 1994, dated 1996):
In brackets after ≈: the same amount, converted by molar mass. Entries after “also recorded” stand apart in the source; their conditions may differ.

Columns and labels:
[1] = UV Method For Determining Water Solubility; format: physicochemical; conditions: for solubility: water, room temperature, saturated solution standing over excess sample 15 to 20 hours, UV
Experimental: UV Method For Determining Water Solubility:
The ultraviolet spectrum is taken at room temperature of a saturated solution of the sample (saturated solution being defined as a water solution standing over excess sample for 15 to 20 hours with no heat being applied). A standard solution of the sample is obtained in water if possible. When the solubility in water is too low to do this (<1 mg/100 ml), a mg of the sample is dissolved in DMSO and diluted to 100 ml with water. Molar or gram extinction coefficients are calculated for the standard solutions and these values are used to determine the concentration of the saturated solution.

[2] = system: murine leukemia L1210 cells; assay: In vitro Growth Inhibitory Activity (MTT, 3 days); format: cell-based; conditions: Mus musculus, 72 h, 3 days at 37° C., read-out: ID50 (the source's name)
Experimental: L1210 cells were maintained in RPMI=1640 a medium supplemented with 10% heat inactivated fetal bovine serum and […] (RPMI-L). B16 cells were maintained in RPMI-1640 medium supplemented with 15% heat inactivated fetal bovine serum and antiobiotics (RPMI-C).
Exponential growing murine leukemia L1210 cells (1×10^3 cells) in 0.1 mL medium were seeded on day 0 in a 96-well microtiter plate. On day 1, 0.1 mL aliquot of medium containing graded concentrations of test analogs was added to the initial volume. After incubation at 37° C. in a humidified incubator for 3 days, the plates were centrifuged briefly and 0.1 mL of the growth medium was removed. Cell cultures were incubated with 50 μL of 3-(4,5-dimethylthiazol-2-yl)-2,5- diphenyltetrazolium bromide (MTT; 1 mg/ml in Dulbecco's phosphate buffer saline) for 4 hours at 37° C. The resulting purple formazan precipitate was solubilized with 0.2 mL of 0.04N HCl in isopropyl alcohol. Absorbance was read in a Titertek Multiskan MCC scaning well spectrophotometer (Flow Laboratories) at a test wavelength of 570 nm and a reference wavelength of 630 nm.
The ID50 values were determined by a computer program that fit all of the data (8 determinations per concentration and 12 concentrations per test analog) to the following equation:
Y=((Am-Ao)/(1+(X/ID50)n))+Ao
where: Am=absorbance of the control cells; Ao=absorbance of the cells in the presence of highest drug concentration; Y=observed absorbance; X=drug concentration; ID50 =dose of drug that inhibits the growth of cells to one half that of the control cells.

DLD-2 human colon tumor = assay: In Vivo Human Tumor Xenograft Model, DLD-2; set-up: species or system human (xenografted in nude mice); conditions: nude mice, i.v. once daily for nine consecutive days; NCI criteria
Source text: (§1) The DLD-2 human colon tumor, MX-1 human mammary carcinoma, and LX-1 human lung tumor were originally obtained from a surgically removed primary colon carcinoma, breast tumor, and non-small lung carcinoma, respectively. The human tumor lines were maintained by serial passage in athymic nude mice. The MX-1 human mammary carcinoma and LX-1 human lung tumor are established tumors used by the NCI. The DLD-2, MX-1, and LX-1 tumor models have been well characterized.
The mice used in these experiments were outbred Swiss mice or BALB/c mice bearing the nude (nu/nu) gene. On day 0 male and female mice weighing 22-30 g are inoculated with 0.2 mL of a 25% tumor mince. This mince is prepared by mincing fresh tumor tissue, grown subcutaneously in passage mice, in sterile physiological saline. Palpable tumors weighing approximately 50 mg appear in the mice within 7-10 days after inoculation. The mice are pair matched by tumor weight and sex into groups of ten each and the test compounds and vehicle control are administered intravenously (i.v.) once daily for nine consecutive days. A >20% decrease in body weight on day 5 following compound administration is considered an indication of toxicity. Tumor measurements and body weights are recorded once a week. Fifteen to 18 days after the initial injection the mice are weighed, sacrificed and the tumors excised and weighed.
(§2) The efficacy of the test compounds is determined by the extent of tumor growth inhibition in treated versus vehicle-treated control mice. Initial tumor weights (mg) are calculated from the tumor dimensions (mm) measured from caliper measurements, using the formula for a prolate ellipsoid (mg of tumor weight=(length×width^2)/2). Net tumor weights are calculated for each of the treated groups and the vehicle-treated control group by subtracting the initial tumor weight from the final tumor weight on day 15. Results are expressed as a percentage decrease relative to the mean tumor weight for the control vehicle-treated group. [formula] Activity Criteria […]

MX-1 human breast tumor = assay: In Vivo Human Tumor Xenograft Model, MX-1; set-up: species or system human (xenografted in nude mice); conditions: nude mice, i.v. once daily for nine consecutive days; NCI criteria
Source text: as §1
(§3) The mice used in these experiments were outbred Swiss mice or BALB/c mice bearing the nude (nu/nu) gene. On day 0 male and female mice weighing 22-30 g are inoculated with 0.2 mL of a 25% tumor mince. […] Tumor measurements and body weights are recorded once a week. […]
as §2, with “group.” for “group. [formula] Activity Criteria”

LX-1 human lung tumor = assay: In Vivo Human Tumor Xenograft Model, LX-1; set-up: species or system human (xenografted in nude mice); conditions: nude mice, i.v. once daily for nine consecutive days; NCI criteria
Source text: as §1, §3
as §2, with “group.” for “group. [formula] Activity Criteria”

## CN(CCN(C)CCN1C(=O)c2cccc3cc([N+](=O)[O-])cc(c23)C1=O)CCN1C(=O)c2cccc3cc([N+](=O)[O-])cc(c23)C1=O [Example 1, 2,2'-[1,2-Ethanediylbis(methylimino-2,1-ethanediyl)]-bis[5-nitro-1H-benz[de]isoquinoline-1,3(2H)-dione]methanesulfonate (1:2)]
[1]; in words, relative to related compounds
  water solubility (in words): unexpected increased water solubility; also recorded: dramatic unexpected increase in water solubility
[1]
  solubility: > 26400 µg/mL
[2]
  IC50: 0.0115 µg/mL (≈ 0.0184 µM)
DLD-2 human colon tumor
  activity against DLD-2 human colon tumor in vivo (tumor growth inhibition): excellent to outstanding
MX-1 human breast tumor
  activity against MX-1 human breast tumor in vivo (tumor growth inhibition): good to excellent (inhibition of ≥90% is considered good to excellent activity)

## CN(CCNCCN1C(=O)c2cccc3cc([N+](=O)[O-])cc(c23)C1=O)CCN1C(=O)c2cccc3cc([N+](=O)[O-])cc(c23)C1=O [Example 2, 2-[2-[N-methyl-N-[2-[[2-(5-nitro-1,2-dioxo-1H-benz[de]isoquinoline-2(3H)-yl)ethyl]amino]ethyl]amino]ethyl]-5-nitro-1H-benz[de]isoquinoline-1,3(2H)-dione methanesulfonate (1:2)]
[1]
  solubility: 9600 µg/mL
[2]
  IC50: < 0.01 µg/mL
DLD-2 human colon tumor
  activity against DLD-2 human colon tumor in vivo (tumor growth inhibition): excellent to outstanding

## O=C1c2cccc3cc([N+](=O)[O-])cc(c23)C(=O)N1CCNCCNCCN1C(=O)c2cccc3cc([N+](=O)[O-])cc(c23)C1=O [Example 3, 2,2'-[1,2-Ethanediylbis(imino-2,1-ethanediyl)]-bis[5-nitro-1H-benz[de]isoquinoline-1,3(2H)-dione]methanesulfonate (1:2)]
[1]
  solubility: 600 µg/mL (≈ 1010 µM)
[2]
  IC50: 0.009 µg/mL (≈ 0.0151 µM)
DLD-2 human colon tumor
  activity against DLD-2 human colon tumor in vivo (tumor growth inhibition): excellent to outstanding
MX-1 human breast tumor
  activity against MX-1 human breast tumor in vivo (tumor growth inhibition): excellent to outstanding
LX-1 human lung tumor
  activity against LX-1 human lung tumor in vivo (tumor growth inhibition): moderate (Tumor growth inhibition of 58-89% in the DLD-2 assay is considered moderate activity)
